Data from patent US7544675B2, “Chemical compounds with dual activity, processes for their preparation and pharmaceutical compositions” (UCB, S.A., priority 2002, dated 2009).

Tests used:
PDE IV = PDE IV enzymatic activity (SPA phosphodiesterase assay, cytosolic fraction from U937 cells); assay type: biochemical; settings: qualitative statement
Description: Cytosolic fraction from U937 cells pre-stimulated for 4 h at 37° C. with a mixture of rolipram 30 μM and salbutamol 1 μM (Torphy T. J., Zhou H. L., Cieslinski L. B., J. Pharmacol. Exp. Ther. (1992), 263 (3), 1195-1205).
Assays were performed in 100 μL of 50 mM Tris HCl buffer (pH 7.4) containing 5 mM MgCl2, 2 mM EGTA, 20 nM of [^3H]-cAMP (40-60 Ci/mmol), the cytosolic fraction of 50,000 U937 cells and the appropriate concentration of test compound (usually 10 μM) dissolved in DMSO (final assay concentration not exceeding 1%). After 30 min incubation at room temperature, 0.5 mg of SPA yttrium silicate beads are added to each sample. Radioactivity bound to the beads (5′-AMP) is determined by liquid scintillation. Non PDE IV activity and/or non specific binding of the labeled substrate to the SPA beads is defined as the residual radioactivity remaining in the presence of rolipram 32 μM (non PDE IV activity represents about 40% of total activity). PDE IV activity is determined by subtracting the non PDE TV activity from the total activity.

[1] = biological target: T1, human m3 muscarinic receptor (Homo sapiens, UniProt P20309); experiment: Affinity for human muscarinic receptors ([3H]-NMS binding, CHO cell membranes); settings: qualitative statement
T1 construct: expressed in transfected cells; host or cells: CHO (Chinese Hamster Ovarian) cells, crude membrane fraction
Description: Chinese Hamster Ovarian cells (CHO) expressing the human recombinant m1, m2, m3, m4 and m5 receptors were cultured in Ham's F12 media supplemented with 100 IU/ml of penicillin, 100 μg/ml of streptomycin, 400 μg/ml of geneticin and 5% of fetal bovine serum. Cell cultures were maintained in a humidified incubator at 37° C. and 5% CO2.
Confluent CHO cells expressing human m1, m2, m3, m4 and m5 muscarinic receptors were harvested and resuspended in phosphate buffered saline without calcium and magnesium. The cell suspension was centrifuged at 1500×g for 3 min (4° C.). The cell pellet was homogenized in a 15 mM Tris-HCl (pH 7.5) buffer containing 2 mM MgCl2, 0.3 mM EDTA and 1 mM EGTA. The crude membrane fraction was collected by two consecutive centrifugation steps at 40,000×g for 25 min (4° C.). The final pellet was resuspended, at a protein concentration ranging from 2 to 6 mg/ml, in a 7.5 mM Tris-HCl (pH 7.5) buffer containing 12.5 mM MgCl2, 0.3 mM EDTA, 1 mM EGTA and 250 mM sucrose and stored in liquid nitrogen.
Binding assays were performed according to procedure described in: Buckley N. J., Bonner T. I., Buckley C. M., Brann M. R., Mol. Pharmacol. (1989), 35, 469-476, but with slight modifications.
Briefly, 25 to 50 μg of membrane proteins were incubated at room temperature in 1 ml of a 50 mM Tris-HCl (pH 7.4) buffer containing 2 mM of MgCl2, 0.1 nM of [^3H]-NMS (N-methylscopolamine, 85 Ci/mmol, from Apbiotech, UK) and increasing concentrations of test compound dissolved in DMSO (1% final concentration). Non specific binding was measured in the presence of 1 μM atropine. After 60 (m2) or 120 (m3) min. incubation, assays were stopped by rapid vacuum filtration of the samples through glass fiber filters (Filtermat A, Wallac, Belgium) presoaked in 0.3% polyethyleneimine for at least 2 h. Samples were further rinsed with 8 ml of ice-cold 50 mM Tris-HCl (pH 7.4) buffer. Radioactivity trapped onto the filter was counted in a Betaplate counter (Wallac). Competition binding curves were analyzed by non-linear regression with XLfit software (UDBS, UK).

T1 sequence (P20309 whole entry): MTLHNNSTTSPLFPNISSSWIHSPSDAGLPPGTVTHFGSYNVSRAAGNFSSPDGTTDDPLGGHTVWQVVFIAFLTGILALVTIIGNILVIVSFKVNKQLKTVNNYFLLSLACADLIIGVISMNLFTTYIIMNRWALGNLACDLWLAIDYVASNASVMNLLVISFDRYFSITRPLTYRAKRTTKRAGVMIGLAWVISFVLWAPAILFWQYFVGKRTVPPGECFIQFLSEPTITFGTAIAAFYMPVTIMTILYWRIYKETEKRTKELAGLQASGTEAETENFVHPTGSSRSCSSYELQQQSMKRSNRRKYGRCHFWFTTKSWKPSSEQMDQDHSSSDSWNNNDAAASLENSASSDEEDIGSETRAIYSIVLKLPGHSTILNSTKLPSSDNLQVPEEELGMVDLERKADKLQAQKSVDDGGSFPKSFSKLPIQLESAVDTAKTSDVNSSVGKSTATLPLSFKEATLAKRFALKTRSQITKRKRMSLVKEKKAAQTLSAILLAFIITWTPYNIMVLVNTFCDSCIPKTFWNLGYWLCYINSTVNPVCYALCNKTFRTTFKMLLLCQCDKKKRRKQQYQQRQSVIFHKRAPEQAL

Row | SMILES | Dual high affinities: PDE IV part (PDE IV) | Dual high affinities: m3 receptor part [1]
1 | Nc1c(NC2CC2)nc(C2CC2)nc1N1CCCCCC1 [Compound 63, 6-(1-azepanyl)-N^4,2-dicyclopropyl-4,5-pyrimidinediamine] | high affinities | high affinities
2 | Cc1c(NC2CC2)nc(C2CC2C)nc1N1CCCCCC1 (racemic) [Compound 65, 6-(1-azepanyl)-N-cyclopropyl-5-methyl-2-(2-methylcyclopropyl)-4-pyrimidinamine] | high affinities | high affinities
3 | CCc1c(NC2CC2)nc(C2CC2)nc1N1CCSCC1 [Compound 118, N,2-dicyclopropyl-5-ethyl-6-(4-thiomorpholinyl)-4-pyrimidinamine (1:1)] | high affinities | high affinities
4 | Cc1c(NC2CC2)nc(C2CC2)nc1N1CCCCC1C (racemic) [Compound 177, N,2-dicyclopropyl-5-methyl-6-(2-methyl-1-piperidinyl)-4-pyrimidinamine] | high affinities | high affinities
5 | Cc1c(NC2CC2)nc(C2CC2)nc1N1CC=CCC1 [Compound 112, N,2-dicyclopropyl-6-(3,6-dihydro-1(2H)-pyridinyl)-5-methyl-4-pyrimidinamine] | high affinities | high affinities
6 | Cc1c(NC2CC2)nc(C2CC2)nc1N1CC2CCC(C2)C1 [Compound 115, 6-(3-azabicyclo[3.2.1]oct-3-yl)-N,2-dicyclopropyl-5-methyl-4-pyrimidinamine] | high affinities | high affinities
7 | Clc1c(NC2CC2)nc(C2CC2)nc1N1CCCCCC1 [Compound 59, 6-(1-azepanyl)-5-chloro-N,2-dicyclopropyl-4-pyrimidinamine] | high affinities | high affinities
8 | CCC1CCN(c2nc(C3CC3)nc(NC3CC3)c2C)CC1 [Compound 86, N,2-dicyclopropyl-6-(4-ethyl-1-piperidinyl)-5-methyl-4-pyrimidinamine] | high affinities | high affinities
9 | Cc1c(NC2CC2)nc(C2CC2)nc1N1CCCCCC1 [Compound 56, 6-(1-azepanyl)-N,2-dicyclopropyl-5-methyl-4-pyrimidinamine] | high affinities | high affinities
10 | CC1CC1c1nc(NC2CCCCC2)cc(NC2CC2)n1 (single isomer, unassigned) [Compound 144, N^4-cyclohexyl-N^6-cyclopropyl-2-(2-methylcyclopropyl)-4,6-pyrimidinediamine] | high affinities | high affinities
11 | Cc1c(NC2CC2)nc(C(C)C)nc1N1CCCCCC1 [Compound 64, 6-(1-azepanyl)-N-cyclopropyl-2-isopropyl-5-methyl-4-pyrimidinamine] | high affinities | high affinities
12 | Cc1c(NC2CC2)nc(C2CCC2)nc1N1CCCCCC1 [Compound 55, 6-(1-azepanyl)-2-cyclobutyl-N-cyclopropyl-5-methyl-4-pyrimidinamine] | high affinities | high affinities
